Measurements: publication PMC7253423, “Quassinoid analogs with enhanced efficacy for treatment of hematologic malignancies target the PI3Kγ isoform” (Communications Biology, 2020)
Like-named read-outs stand apart in the source and are kept apart here.

How the values were obtained:
[1] = Cytotoxicity, cell viability assay in normal cells; assay type: cell-based, human; conditions: human, PBMC, fraction of 0 μM control, read-out: relative cell viability (Fig 6a), replicates; for viability at 0.00390625 μM: Con. 0.00390625 μM; for viability at 0.015625 μM: Con. 0.015625 μM; for viability at 0.0625 μM: Con. 0.0625 μM; for viability at 1 μM: Con. 1 μM
Text: (§1) Human peripheral blood mononuclear cells (PBMCs), normal T-cells and B-cells were provided by the University of Pennsylvania Human Immunology Core (HIC), and Patient-derived xenografts (PDXs) were obtained from Fox Chase Cancer Center (FCCC). These samples were from different unidentified and healthy donors with written, informed consent. All the procedures were approved by the Institutional Review Board (IRB) and conducted according to the declarations of Helsinki protocols.
(§2) 5000 cells as indicated were cultured in 96-well plate with 100 μl of media. […] After treatment, the cells were incubated with 100 μl buffer for 10 min at room temperature following the instructions of CellTiter-Glo kit (Promega, Madison, WI). Luminescence was detected using a multi-mode reader Cytation 5 (BioTek, Winooski, VT). […] Two independent experiments done in duplicates were performed.

[2] = Cytotoxicity, cell viability assay in normal cells; assay type: cell-based; conditions: human, fraction of 0 μM control; for viability at 0.000244141 μM: Con. 0.000244141 μM; for viability at 0.00390625 μM: Con. 0.00390625 μM; for viability at 0.015625 μM: Con. 0.015625 μM; for viability at 0.0625 μM: Con. 0.0625 μM; for viability at 1 μM: Con. 1 μM; for viability at […]: Con. […]
Text: as §1, §2

SU-DHL-4 cells = assay: Cell viability assay (CellTiter-Glo luminescence); assay type: cell-based, human; conditions: Homo sapiens, SU-DHL-4, 144 h; for viability at 0.00244141 µM: read-out: relative cell viability (Fig 6d), replicates, SU-DHL-4, Con. 0.00244141 μM, fraction of 0 μM control; for viability at 0.15625 µM: read-out: relative cell viability (Fig 6d), replicates, SU-DHL-4, Con. 0.15625 μM, fraction of 0 μM control; for viability at 0.625 µM: read-out: relative cell viability (Fig 6d), replicates, SU-DHL-4, Con. 0.625 μM, fraction of 0 μM control; for viability at 10 µM: read-out: relative cell viability (Fig 6d), replicates, SU-DHL-4, Con. 10 μM, fraction of 0 μM control
Method: as §2

Raji cells = assay: Cell viability assay (CellTiter-Glo luminescence); assay type: cell-based, human; conditions: Homo sapiens; for viability at 0.00244141 µM: read-out: relative cell viability (Fig 6f), replicates, Raji, Con. 0.00244141 μM, fraction of 0 μM control; for viability at 0.0390625 µM: read-out: relative cell viability (Fig 6f), replicates, Raji, Con. 0.0390625 μM, fraction of 0 μM control; for viability at 0.15625 µM: read-out: relative cell viability (Fig 6f), replicates, Raji, Con. 0.15625 μM, fraction of 0 μM control; for viability at 0.625 µM: read-out: relative cell viability (Fig 6f), replicates, Raji, Con. 0.625 μM, fraction of 0 μM control; for viability at 10 µM: read-out: relative cell viability (Fig 6f), replicates, Raji, Con. 10 μM, fraction of 0 μM control; for viability at […]: read-out: relative cell viability (Fig 6f), replicates, Raji, Con. […], fraction of 0 μM control
Method: as §2

MOLM14 cells = assay: Cell viability assay (CellTiter-Glo luminescence); assay type: cell-based; conditions: Homo sapiens; for viability at 0.625 µM: MOLM-14, read-out: relative cell viability (Fig 6e), replicates, MOLM14, Con. 0.625 μM, fraction of 0 μM control; for viability at 10 µM: MOLM-14, read-out: relative cell viability (Fig 6e), replicates, MOLM14, Con. 10 μM, fraction of 0 μM control; for viability at […]: MOLM-14, read-out: relative cell viability (Fig 6e), replicates, MOLM14, Con. […], fraction of 0 μM control
Method: as §2

[3] = normal B-cells from healthy donors, B-cells, read-out: relative cell viability (Fig 6c), replicates
[4] = normal T-cells from healthy donors, T-cells, read-out: relative cell viability (Fig 6b), replicates

Row | SMILES | viability at 0.00390625 μM [1] [%] | viability at 0.015625 μM [1] [%] | viability at 0.0625 μM [1] [%] | viability at 1 μM [1] [%] | viability at 0.000244141 μM [2, 3] [%] | viability at 0.015625 μM [2, 3] [%] | viability at 0.0625 μM [2, 3] [%] | viability at 1 μM [2, 3] [%] | viability at 0.000244141 μM [2, 4] [%] | viability at 0.00390625 μM [2, 4] [%] | viability at 0.015625 μM [2, 4] [%] | viability at 0.0625 μM [2, 4] [%] | viability at 1 μM [2, 4] [%] | viability at […] [2, 4] [%] | viability at 0.00244141 µM (SU-DHL-4 cells) [%] | viability at 0.15625 µM (SU-DHL-4 cells) [%] | viability at 0.625 µM (SU-DHL-4 cells) [%] | viability at 10 µM (SU-DHL-4 cells) [%] | viability at 0.00244141 µM (Raji cells) [%] | viability at 0.0390625 µM (Raji cells) [%] | also measured
1 | C[C@H](Nc1ncnc2nc[nH]c12)c1cc2cccc(Cl)c2c(=O)n1-c1ccccc1 [Duvelisib] | 94.6 | 101 | 92.6 | 80.3 | 94.3 | 80.4 | 104 | 72.7 | 108 | 100 | 99.3 | 102 | 93.2 | 103 | 103 | 85.8 | 75.1 | 27.4 | 94.9 | 112 | viability at 0.000244141 μM ([1]; Con. 0.000244141 μM): 103%; viability at 0.00390625 μM [2, 3]: 103%; viability at 0.0390625 µM (SU-DHL-4 cells; read-out: relative cell viability (Fig 6d), replicates, SU-DHL-4, Con. 0.0390625 μM, fraction of 0 μM control): 99.8%; viability at 0.15625 µM (Raji cells): 94.1%; viability at 0.625 µM (Raji cells): 99.1%; viability at 10 µM (Raji cells): 64.1%; viability at […] (Raji cells): 104%; viability at 0.0390625 µM (MOLM14 cells; MOLM-14, read-out: relative cell viability (Fig 6e), replicates, MOLM14, Con. 0.0390625 μM, fraction of 0 μM control): 122%; viability at 0.15625 µM (MOLM14 cells; MOLM-14, read-out: relative cell viability (Fig 6e), replicates, MOLM14, Con. 0.15625 μM, fraction of 0 μM control): 109%; viability at 0.625 µM (MOLM14 cells): 125%; viability at 10 µM (MOLM14 cells): 24.1%; viability at […] (MOLM14 cells): 106%
2 | C[C@H](NC(=O)c1c(N)nn2cccnc12)c1cc2cccc(C#Cc3cnn(C)c3)c2c(=O)n1-c1ccccc1 [IPI-549] | 98.8 | 104 | 102 | 99.1 | 107 | 118 | 105 | 93.7 | 108 | 107 | 109 | 83.1 | 115 | 109 | 94.9 | 115 | 94.2 | 30.8 | 95.4 | 108 | viability at […] [2, 3]: 122%; viability at 0.15625 µM (Raji cells): 113%; viability at 0.625 µM (Raji cells): 122%; viability at 10 µM (Raji cells): 55%; viability at […] (Raji cells): 98.4%; viability at 0.00244141 µM (MOLM14 cells; MOLM-14, read-out: relative cell viability (Fig 6e), replicates, MOLM14, Con. 0.00244141 μM, fraction of 0 μM control): 121%; viability at 0.625 µM (MOLM14 cells): 93.4%; viability at 10 µM (MOLM14 cells): 23.9%; viability at […] (MOLM14 cells): 119%
